{"source": "paper PMC10691697", "about": "“A small molecule exerts selective antiviral activity by targeting the human cytomegalovirus nuclear egress complex” (PLOS Pathogens, 2023)", "molecules": {"B1": {"name": "Myc-tagged HSV-1 Pol C-terminal peptide P30 (UL30 residues 1200-1235) (peptide)", "chain": "GGGGSGGGGSGGGDDVAARLRTAGFGAVGAGATAEETRRMLHRAFDTLA", "notes": "source: E. coli, expressed and purified as described for Myc-UL53; not shown: Myc, N-terminal, kept"}, "B2": {"name": "Myc-tagged HCMV UL53 (residues 50-292) with glycine-serine linker (domain or fragment)", "chain": "GGGGSGGGGSGGGPSPADARPRLTLHDLHDIFREHPELELKYLNMMKMAITGKESICLPFNFHSHRQHTCLDISPYGNEQVSRIACTSCEDNRILPTASDAMVAFINQTSNIMKNRNFYYGFCKSSELLKLSTNQPPIFQIYYLLHAANHDIVPFMHAEDGRLHMHVIFENPDVHIPCDCITQMLTAAREDYSVTLNIVRDHVVISVLCHAVSASSVKIDVTILQRKIDEMDIPNDVSESFERYKELIQELCQSSG", "notes": "source: E. coli BL21 (DE3) RIPL, purified (glutathione-agarose, on-column PreScission digestion, size exclusion chromatography); not shown: GST, N-terminal, cleaved; Myc, N-terminal, kept"}, "B3": {"name": "His-tagged HCMV UL50 (residues 1-169) (domain or fragment)", "chain": "MEMNKVLHQDLVQATRRILKLGPSELRVTDAGLICKNPNYSVCDAMLKTDTVYCVEYLLSYWESRTDHVPCFIFKNTGCAVSLCCFVRAPVKLVSPARHVGEFNVLKVNESLIVTLKDIEEIKPSAYGVLTKCVVRKSNSASVFNIELIAFGPENEGEYENLLRELYAK", "notes": "also called His-UL50; source: E. coli BL21 (DE3) RIPL, purified (nickel Sepharose, size exclusion chromatography); not shown: His, N-terminal, kept"}, "B4": {"name": "His-tagged HCMV UL50 (residues 1-169) C79S (domain or fragment)", "chain": "B3 chain with C79S", "notes": "source: E. coli BL21 (DE3) RIPL, purified (same methods as His-UL50); not shown: His, N-terminal, kept"}, "B5": {"name": "His-tagged HCMV UL50 (residues 1-169) C54S (domain or fragment)", "chain": "B3 chain with C54S", "notes": "as for B4"}, "B6": {"name": "His-tagged HCMV UL50 (residues 1-169) C35N (domain or fragment)", "chain": "B3 chain with C35N", "notes": "as for B4"}}, "key": {"HCMV UL50-UL53": {"molecular_target": "T1, HCMV UL50-UL53 (Human cytomegalovirus, UniProt P16794)", "T1 construct": "GST (N, cleaved yes); 13-residue glycine-serine linker […]; made in house; host or cells: E. coli BL21 (DE3) RIPL", "assay": "biochemical", "assay_type": "binding", "conditions": "for scoring as a hit in the HTRF screen: hit = at least 50 percent inhibition of HTRF signal, ibrutinib up to 50 μM"}, "HSV-1 P30-UL42 [1]": {"molecular_target": "T2, HSV-1 P30-UL42 (Human herpesvirus 1, UniProt P10226)", "T2 construct": "containing UL42 residues 1–340; GST (N); glycine-serine linker of the modified pGEX6p plasmid (presence inferred) (N); made in house; host or cells: E. coli (UL42: pLysS BL21)", "assay": "biochemical", "assay_type": "binding"}, "HSV-1 P30-UL42 [2]": {"molecular_target": "T3, HSV-1 P30-UL42 (Human herpesvirus 1, UniProt P10226)", "T3 construct": "containing UL42 residues 1–340; GST (N); glycine-serine linker of the modified pGEX6p plasmid (presence inferred) (N); made in house; host or cells: E. coli (UL42: pLysS BL21)", "T3 sequence (P10226 whole entry, looked up)": "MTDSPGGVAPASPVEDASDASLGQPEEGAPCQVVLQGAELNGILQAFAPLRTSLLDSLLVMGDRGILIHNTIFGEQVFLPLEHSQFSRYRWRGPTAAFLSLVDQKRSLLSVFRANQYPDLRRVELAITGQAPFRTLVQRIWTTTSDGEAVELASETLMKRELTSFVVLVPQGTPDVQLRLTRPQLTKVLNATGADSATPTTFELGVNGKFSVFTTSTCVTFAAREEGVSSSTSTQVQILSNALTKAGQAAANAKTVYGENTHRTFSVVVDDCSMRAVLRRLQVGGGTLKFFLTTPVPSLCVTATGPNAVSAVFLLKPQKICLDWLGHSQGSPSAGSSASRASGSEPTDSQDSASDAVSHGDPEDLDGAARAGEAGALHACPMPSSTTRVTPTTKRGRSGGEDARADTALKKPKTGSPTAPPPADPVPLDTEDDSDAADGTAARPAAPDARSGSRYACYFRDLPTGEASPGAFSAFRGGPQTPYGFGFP", "assay": "biochemical", "assay_type": "binding", "remark": "listed apart in the source"}, "[3]": {"molecular_target": "T4, His-SUMO-tagged HSV-1 UL42 (residues 1-340) (herpes simplex virus 1 (HSV-1), UniProt P10226 1-340)", "T4 construct": "also called His-SUMO-UL42; His-tagged HSV-1 UL42; source: E. coli pLysS BL21, purified as described for the HCMV NEC proteins", "T4 sequence": "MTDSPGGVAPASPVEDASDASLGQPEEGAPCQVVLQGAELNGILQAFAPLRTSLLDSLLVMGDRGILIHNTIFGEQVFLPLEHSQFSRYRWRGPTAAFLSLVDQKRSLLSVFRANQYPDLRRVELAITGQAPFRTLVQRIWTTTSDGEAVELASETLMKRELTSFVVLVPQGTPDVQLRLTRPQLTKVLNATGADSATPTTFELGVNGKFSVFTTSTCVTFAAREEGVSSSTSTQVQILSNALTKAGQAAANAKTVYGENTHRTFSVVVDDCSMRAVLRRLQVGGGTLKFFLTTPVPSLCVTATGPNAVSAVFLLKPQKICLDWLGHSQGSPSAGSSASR", "assay": "AlphaScreen or HTRF", "conditions": "both partners purified"}, "[4]": {"molecular_target": "T5, His-tagged HCMV UL50 (residues 1-169) (human cytomegalovirus (HCMV), UniProt P16791 1-169)", "T5 construct": "also called His-UL50; tagged UL50; source: E. coli BL21 (DE3) RIPL, purified (nickel Sepharose, size exclusion chromatography); not shown: His, N-terminal, kept", "T5 sequence": "B3 chain", "assay": "AlphaScreen or HTRF", "conditions": "both partners purified"}, "[5]": {"molecular_target": "T6, Myc-tagged HCMV UL53 (residues 50-292) (human cytomegalovirus (HCMV), UniProt P16794 50-292)", "T6 construct": "source: E. coli BL21 (DE3) RIPL, purified (glutathione-agarose, on-column PreScission digestion, size exclusion chromatography); not shown: GST, N-terminal, cleaved; Myc, N-terminal, kept", "T6 sequence": "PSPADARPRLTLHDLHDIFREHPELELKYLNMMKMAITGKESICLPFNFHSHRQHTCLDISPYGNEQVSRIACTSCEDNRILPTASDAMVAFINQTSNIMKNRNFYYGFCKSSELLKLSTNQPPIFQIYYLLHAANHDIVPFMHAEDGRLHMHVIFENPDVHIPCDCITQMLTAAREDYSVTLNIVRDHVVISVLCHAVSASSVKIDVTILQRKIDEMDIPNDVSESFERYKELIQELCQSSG", "assay": "AlphaScreen or HTRF", "conditions": "both partners purified"}, "[6]": {"conditions": "LINCS2 well 2, 10 μM in the assay"}, "[7]": {"conditions": "LINCS2 well 4, 0.4 μM in the assay"}, "[8]": {"conditions": "Selleck well, 50 μM in the assay"}}, "note": "Where a chain is given by its changes, count along the chain named. Values joined by “and” are separate entries in the source; they are usually repeats but may differ in a detail not shown here. Equal entries are not always repeated.", "data": [{"molecule": "CCC(=O)Nc1cccc(Oc2ccnc3[nH]ccc23)c1", "note": "[aGK2]", "values": [{"measurement": "activity in the HTRF assay for NEC interactions", "setting": "HCMV UL50-UL53", "result": "little, if any activity"}, {"measurement": "remaining activity at 1.56 µM", "setting": "HCMV UL50-UL53; WT UL50-UL53, 1.56 μM compound, replicates, read-out: normalized FRET signal relative to control without inhibitor", "result": 95, "unit": "%"}, {"measurement": "remaining activity at 3.13 µM", "setting": "HCMV UL50-UL53; WT UL50-UL53, 3.13 μM compound, replicates, read-out: normalized FRET signal relative to control without inhibitor", "result": 95, "unit": "%"}, {"measurement": "remaining activity at 6.25 µM", "setting": "HCMV UL50-UL53; WT UL50-UL53, 6.25 μM compound, replicates, read-out: normalized FRET signal relative to control without inhibitor", "result": 92, "unit": "%"}, {"measurement": "remaining activity at 50 µM", "setting": "HCMV UL50-UL53; WT UL50-UL53, 50.00 μM compound, replicates, read-out: normalized FRET signal relative to control without inhibitor", "result": 93, "unit": "%"}, {"measurement": "remaining activity at 25 µM", "setting": "HCMV UL50-UL53; WT UL50-UL53, […] compound, replicates, read-out: normalized FRET signal relative to control without inhibitor", "result": 94, "unit": "%"}, {"measurement": "remaining activity at 1.56 µM", "setting": "HSV-1 P30-UL42 [1]; HSV1 P30-UL42, 1.56 μM compound, replicates, read-out: normalized FRET signal relative to control without inhibitor", "result": 101, "unit": "%"}, {"measurement": "remaining activity at 3.13 µM", "setting": "HSV-1 P30-UL42 [1]; HSV1 P30-UL42, 3.13 μM compound, replicates, read-out: normalized FRET signal relative to control without inhibitor", "result": 102, "unit": "%"}, {"measurement": "remaining activity at 6.25 µM", "setting": "HSV-1 P30-UL42 [1]; HSV1 P30-UL42, 6.25 μM compound, replicates, read-out: normalized FRET signal relative to control without inhibitor", "result": 99, "unit": "%"}, {"measurement": "remaining activity at 50 µM", "setting": "HSV-1 P30-UL42 [1]; HSV1 P30-UL42, 50.00 μM compound, replicates, read-out: normalized FRET signal relative to control without inhibitor", "result": 97, "unit": "%"}, {"measurement": "remaining activity at 25 µM", "setting": "HSV-1 P30-UL42 [1]; HSV1 P30-UL42, […] compound, replicates, read-out: normalized FRET signal relative to control without inhibitor", "result": 99, "unit": "%"}, {"measurement": "inhibition in the HSV-1 P30-UL42 counterscreen assay", "setting": "HSV-1 P30-UL42 [1]; all concentrations tested (up to 50 μM)", "result": "little, if any activity"}]}, {"molecule": "O=C([O-])c1ccccc1-c1c2cc(Br)c(=O)cc-2oc2[c]([Hg+])c([O-])c(Br)cc12.[Na+].[Na+].[OH-]", "note": "[merbromin, reference compound]", "values": [{"measurement": "scoring as a hit in the HTRF screen", "setting": "HCMV UL50-UL53", "result": "scored negative"}]}, {"molecule": "C=CC(=O)N1CCC[C@@H](n2nc(-c3ccc(Oc4ccccc4)cc3)c3c(N)ncnc32)C1", "note": "[ibrutinib, reference compound]", "values": [{"measurement": "HTRF Channel 2 (620 nm)", "setting": "HCMV UL50-UL53; LINCS2 well 1, 50 μM in the assay", "result": "5736 and 5840"}, {"measurement": "HTRF Channel 1 (665 nm)", "setting": "HCMV UL50-UL53; [6]", "result": 31679}, {"measurement": "HTRF Channel 2 (620 nm)", "setting": "HCMV UL50-UL53; [6]", "result": "5859 and 6111"}, {"measurement": "HTRF Channel 2 (620 nm)", "setting": "HCMV UL50-UL53; LINCS2 well 3, 2 μM in the assay", "result": "6125 and 5780"}, {"measurement": "HTRF Channel 1 (665 nm)", "setting": "HCMV UL50-UL53; [7]", "result": 31815}, {"measurement": "HTRF Channel 2 (620 nm)", "setting": "HCMV UL50-UL53; [7]", "result": "5791 and 5828"}, {"measurement": "inhibition in HTRF screen", "setting": "HCMV UL50-UL53; LINCS wells, 50, 10, 2 and 0.4 μM", "result": "Essentially no inhibition"}, {"measurement": "HTRF Channel 1 (665 nm)", "setting": "HCMV UL50-UL53; [8]", "result": "7468 and 7529"}, {"measurement": "HTRF Channel 2 (620 nm)", "setting": "HCMV UL50-UL53; [8]", "result": "8631 and 9073"}, {"measurement": "scoring as a hit in the HTRF screen", "setting": "HCMV UL50-UL53", "result": "not registering as a hit"}]}, {"molecule": "Untagged P30: untagged C-terminal 36 residues of HSV-1 UL30 (DDVAARLRAAGFGAVGAGATAEETRRMLHRAFDTLA) [reference compound]", "values": [{"measurement": "HTRF ratio", "setting": "HSV-1 P30-UL42 [2]; P30-UL42 + untagged protein, A665nm/A620nm * 10000, single replicates", "result": "26529 and 26670 and 27659"}, {"measurement": "HTRF ratio, Mean", "setting": "HSV-1 P30-UL42 [2]; P30-UL42 + untagged protein, triplicate", "result": 26953}, {"measurement": "S/B", "setting": "HSV-1 P30-UL42 [2]; P30-UL42 with untagged protein", "result": 2.4}]}, {"molecule": "B1", "values": [{"measurement": "binding result", "setting": "[3]", "result": "binds"}]}, {"molecule": "B2", "values": [{"measurement": "HTRF ratio, fold over the background of either tagged subunit alone", "setting": "[4]", "result": "~3", "unit": "fold"}]}, {"molecule": "B3", "values": [{"measurement": "Kd", "setting": "[5]", "result": "220 nM and 380 nM"}]}, {"molecule": "B4", "values": [{"measurement": "Kd", "setting": "[5]", "result": "230 nM and 450 nM"}]}, {"molecule": "B5", "values": [{"measurement": "Kd", "setting": "[5]", "result": "140 nM and 340 nM"}]}, {"molecule": "B6", "values": [{"measurement": "Kd", "setting": "[5]", "result": "110 nM and 190 nM"}]}]}
